Experimental data as given in patent US11427586B2, “1,2,4-oxadiazole derivatives as liver X receptor agonists” (NOVARTIS AG, priority 2019, dated 2022).
pEC50: −log10 of the molar value. Where two headings read alike, the source gives them in different places.

Key:
SCD1 = experiment: Measurement of SCD1 expression in SZ95-SCD1-HiBit cells (HiBiT assay); assay type: cell-based; settings: Homo sapiens; for pEC50: read-out: HiBit EC50
Text: Measurement of SCD1 Expression in SZ95-SCD1-HiBit Cells
SCD1 expression levels in SZ95 cells were quantitated using the HiBiT system (Promega) in which a small peptide sequence (SmBiT) with a larger protein (LgBiT) reconstitutes luciferase activity and can generate a luminescent signal used for quantitation. SZ95-SCD1-HiBit cells were generated by editing the SCD1 gene of SZ95 cells resulting in the addition of an 8 amino acid linker sequence (gssggssg, SEQ ID NO:1) followed by an 11-amino acid SmBiT sequence (vsgwrlfkkis, SEQ ID NO:2) at the carboxy-terminus of the SCD1 protein. The gRNA targeting sequence used was […] (SEQ ID NO: 3) and the SCD1 insertion oligonucleotide encoding the SmBiT sequence was:
SZ95-SCD1-HiBit cells were seeded in 384-well cell culture white plates at a density of 3000 cells/30 μl. Water was added to edge wells to avoid evaporation. Cells were incubated in a humidified incubator with 5% CO2 at 37° C. overnight. Tested compounds were diluted at a ratio of 1:3 in DMSO using an Agilent BRAVO Automated Liquid Handling Platform and, after further serial dilutions, added to cells at final concentrations starting from 18 μM. 2-(3-(3-((2-chloro-3-(trifluoromethyl)benzyl)(2,2-diphenylethyl)amino)propoxy)phenyl)acetic acid was used as a reference compound in each plate. Cells in the assay plate were incubated in a humidified incubator with 5% CO2 at 37° C. for 48 h.
The assay plates were removed from the incubator and allowed to equilibrate to room temperature. Nano-Glo® HiBiT Detection Reagent (Promega; a mixture of Nano-Glo HiBiT Detection Buffer, Nano-Glo HiBiT Detection Substrate, and LgBiT protein, according to the manufacturer's instructions) was added into assay plates, at a volume equal to cell culture medium in each well. Plates were placed on an orbital shaker at a speed of 300-600 rpm for 10 min at room temperature, and read on an EnVision Plate Reader using luminescence detection with a 1 second read time.
The assay measures the increase in SCD1 protein production in vitro. Amax refers to the percent EC50 of the tested compound compared to a reference compound, 2-(3-(3-((2-chloro-3-(trifluoromethyl)benzyl)(2,2-diphenylethyl)amino)propoxy)phenyl)acetic acid.

SZ95 sebocytes = experiment: Sentinel Lipid Assay (SLA), desaturation index in SZ95 sebocytes; assay type: cell-based; settings: Homo sapiens, 72 h; for pEC50: read-out: SLA EC50
Description: Sentinel Lipid Assay (SLA)
The sentinel lipid assay was used quantify the change in the global desaturation index in SZ95 sebocytes upon administration of certain LXR agonist compounds provided herein. The assay measures a smaller subset of lipid analytes in meibum (termed “sentinel lipids”) which would model the global changes the population of both saturated and desaturated lipids in the cells. In order to define this smaller subset of lipids, a complete lipid profile was recorded on dose response curves (eight levels from 4 nM to 10 uM) of Compounds 1-72. An elastic net regression model was applied separately to both the saturated and desaturated lipids to determine the minimum combination of coefficients and analytes, which could be used to adequately model the total population of lipids. The elastic net model was able to reduce the behavior of 425 lipids to 11 lipids and the correlation between the desaturation indices observed using the complete set of lipids with from the 11 sentinel lipids was 0.96.
A medium throughput assay was created using this reduced set of sentinel lipids. A single batch is defined as triplicate examples of three unique plates (i.e., a single batch of cells is used to create nine plates for LC-MSMS analysis). Lipids were extracted from the cells using a 1:1 mixture of methylene chloride/methanol containing 10 nM of deuterated standards of triglycerides, which are used as internal standards for quantitating the lipid abundance. The lipids were separated prior to mass spectrometric analysis using a five minute HPLC gradient. The abundance of the sentinel lipids and the internal standards are measured using multiple reaction monitor mode (MRM) on a triple quadrupole mass spectrometer. The data was transformed from total ion current to nmoles/10^6 cells, which are multiplied by the coefficients from the elastic net model to determine the effective desaturated and saturated content, and therein the desaturation index of the dosed cells. In order to compare compounds from multiple batches with one another, the measure raw desaturation index was normalized by dividing it by the desaturation index of the DMSO dosed cells, and all data was assessed as the fraction by which the compound increases the desaturation index above 1.
SZ95 (immortalized human sebaceous gland cells) cells were seeded in Greiner bio-one 96-well polypropylene plates that were pre-treated with 50 μg/mL Human Plasma Fibronectin (Thermo Fisher Scientific) at a density of 10^4 cells/135 μl. Cells were incubated in a humidified incubator with 5% CO2 at 37° C. overnight. Test compounds were diluted at a ratio of 1:3 and added to cells at final concentrations starting from 10 μM. 2-(3-(3-((2-chloro-3-(trifluoromethyl)benzyl)(2,2-diphenylethyl)amino)propoxy)phenyl)acetic acid was used as a positive control reference compound in each plate. Cells in the assay plate were incubated in a humidified incubator with 5% CO2 at 37° C. for 72 h.
Culture medium was removed from the cells and cells in culture plates were washed with ice cold phosphate buffered saline three times. Plates were heat sealed and stored in a −80° C. freezer prior to Sentinel lipid assay. The Amax value refers to the percent EC50 of the tested compound compared to a reference compound, 2-(3-(3-((2-chloro-3-(trifluoromethyl)benzyl)(2,2-diphenylethyl)amino)propoxy)phenyl)acetic acid.

[1] = 48 h, normalized Amax based on the reference compound Amax of 100%, read-out: HiBit Normalized Amax
[2] = SZ95-SCD1-HiBit cells, 48 h, SCD1 protein production, luminescence, initial dilution 1:3 in DMSO
[3] = SZ95-SCD1-HiBit cells, 48 h, compared to reference compound, read-out: HiBit Amax
[4] = normalized Amax based on the reference compound Amax of 100%, read-out: SLA Normalized Amax
[5] = SZ95 cells, desaturation index, lowest dose used 4.6 nM
[6] = SZ95 cells, compared to reference compound, read-out: SLA Amax
[7] = footnote a: initial dilution for the compound 1:100 in assay medium rather than 1:3 in DMSO

In the case of `CC(C)CS(=O)(=O)c1ccccc1Oc1ccc(-c2noc(CN3C(=O)N(CCN4CCOCC4)C4(CCN(C(=O)CCN(C)C)CC4)C3=O)n2)cc1C(F)(F)F` [Compound 32, 8-(3-(dimethylamino)propanoyl)-3-((3-(4-(2-(isobutylsulfonyl)phenoxy)-3-(trifluoromethyl)phenyl)-1,2,4-oxadiazol-5-yl)methyl)-1-(2-morpholinoethyl)-1,3,8-triazaspiro[4.5]decane-2,4-dione], the Emax (SCD1; [1]) was 84.9%, the pEC50 (SCD1; [2]) was 8.62 and the Emax (SCD1; [3]) was 80.7%. The Emax (SZ95 sebocytes; [4]) was 100%, the pEC50 (SZ95 sebocytes; [5]) was ≥ 8.34 and the Emax (SZ95 sebocytes; [6]) was 96.2%.
For `CC(C)CS(=O)(=O)c1ccccc1Oc1ccc(-c2noc(CN3C(=O)N(CCN4CCOCC4)C(C)(CN(C)C)C3=O)n2)cc1C(F)(F)F` (stereo not drawn) [Compound 60, 5-((dimethylamino)methyl)-3-((3-(4-(2-(isobutylsulfonyl)phenoxy)-3-(trifluoromethyl)phenyl)-1,2,4-oxadiazol-5-yl)methyl)-5-methyl-1-(2-morpholinoethyl)imidazolidine-2,4-dione], the Emax (SZ95 sebocytes; read-out: SLA Amax) was 170%, the pEC50 (SZ95 sebocytes) was ≥ 8.34 and the Emax (SZ95 sebocytes; read-out: SLA Normalized Amax) was 177%.
`CC(C)CS(=O)(=O)c1ccccc1Oc1ccc(-c2noc(CN3C(=O)N(CCN4CCOCC4)C4(CCN(C(=O)CCC(=O)O)CC4)C3=O)n2)cc1C(F)(F)F` [Compound 68, 4-(3-((3-(4-(2-(isobutylsulfonyl)phenoxy)-3-(trifluoromethyl)phenyl)-1,2,4-oxadiazol-5-yl)methyl)-1-(2-morpholinoethyl)-2,4-dioxo-1,3,8-triazaspiro[4.5]decan-8-yl)-4-oxobutanoic acid] showed an Emax (SCD1; [1]) of 84%, an Emax (SCD1; [3]) of 79.9% and a pEC50 (SCD1; [7]) of 8.34.
Work on `CC(C)(C)c1ccccc1Oc1ccc(-c2noc(CN3C(=O)N(CCN4CCOCC4)C4(CCN(C5CCC5)CC4)C3=O)n2)cc1C(F)(F)F` [Compound 16, 3-((3-(4-(2-(tert-butyl)phenoxy)-3-(trifluoromethyl)phenyl)-1,2,4-oxadiazol-5-yl)methyl)-8-cyclobutyl-1-(2-morpholinoethyl)-1,3,8-triazaspiro[4.5]decane-2,4-dione] yielded an Emax (SCD1; [1]) of 94.8%, a pEC50 (SCD1; [2]) of 9.94 and an Emax (SCD1; [3]) of 90.2%. For the same molecule, the Emax (SZ95 sebocytes; [4]) was 146%, the pEC50 (SZ95 sebocytes; [5]) was ≥ 8.34 and the Emax (SZ95 sebocytes; [6]) was 140%.
In the case of `O=C1N(Cc2nc(-c3ccc(Oc4ccccc4S(=O)(=O)CC(F)(F)F)c(C(F)(F)F)c3)no2)C(=O)C2(CCN(C3CCC3)CC2)N1CCC1CCOCC1` [Compound 48, 8-cyclobutyl-1-(2-(tetrahydro-2H-pyran-4-yl)ethyl)-3-((3-(4-(2-((2,2,2-trifluoroethyl)sulfonyl)phenoxy)-3-(trifluoromethyl)phenyl)-1,2,4-oxadiazol-5-yl)methyl)-1,3,8-triazaspiro[4.5]decane-2,4-dione], the Emax (SCD1; [1]) was 93.5%, the pEC50 (SCD1; [2]) was 10.28 and the Emax (SCD1; [3]) was 88.9%. The Emax (SZ95 sebocytes; [4]) was 125%, the pEC50 (SZ95 sebocytes; [5]) was ≥ 8.34 and the Emax (SZ95 sebocytes; [6]) was 120%.
`CC1(C)C(=O)N(Cc2nc(-c3ccc(Oc4ccccc4S(=O)(=O)CCN(CCO)CCO)c(C(F)(F)F)c3)no2)C(=O)N1CCN1CCOCC1` [Compound 62, 3-((3-(4-(2-((2-(bis(2-hydroxyethyl)amino)ethyl)sulfonyl)phenoxy)-3-(trifluoromethyl)phenyl)-1,2,4-oxadiazol-5-yl)methyl)-5,5-dimethyl-1-(2-morpholinoethyl)imidazolidine-2,4-dione] gave an Emax (SZ95 sebocytes; [4]) of 154%, a pEC50 (SZ95 sebocytes; [5]) of 8.01 and an Emax (SZ95 sebocytes; [6]) of 148%.
Work on `CC1(C)NC(=O)N(Cc2nc(-c3ccc(Oc4ccccc4SC(F)(F)F)c(C(F)(F)F)c3)no2)C1=O` [Compound 70, 5,5-dimethyl-3-((3-(3-(trifluoromethyl)-4-(2-((trifluoromethyl)thio)phenoxy)phenyl)-1,2,4-oxadiazol-5-yl)methyl)imidazolidine-2,4-dione] yielded an Emax (SZ95 sebocytes; [4]) of 67.4%, a pEC50 (SZ95 sebocytes; [5]) of 7.00 and an Emax (SZ95 sebocytes; [6]) of 64.7%.
With `CC(C)CS(=O)(=O)c1ccccc1Oc1ccc(-c2noc(CN3C(=O)N(CCC4CCOCC4)C(C)(C)C3=O)n2)cc1C(F)(F)F` [Compound 4, 3-((3-(4-(2-(isobutylsulfonyl)phenoxy)-3-(trifluoromethyl)phenyl)-1,2,4-oxadiazol-5-yl)methyl)-5,5-dimethyl-1-(2-(tetrahydro-2H-pyran-4-yl)ethyl)imidazolidine-2,4-dione] the Emax (SZ95 sebocytes; [4]) was 152%, the pEC50 (SZ95 sebocytes; [5]) was ≥ 8.34 and the Emax (SZ95 sebocytes; [6]) was 146%.
Molecule `CN1C(=O)N(Cc2nc(-c3ccc(Oc4ccccc4C(F)(F)F)c(C(F)(F)F)c3)no2)C(=O)C1(C)C` [Compound 72, 1,5,5-trimethyl-3-((3-(3-(trifluoromethyl)-4-(2-(trifluoromethyl)phenoxy)phenyl)-1,2,4-oxadiazol-5-yl)methyl)imidazolidine-2,4-dione] has an Emax (SZ95 sebocytes; [4]) of 82.8%, a pEC50 (SZ95 sebocytes; [5]) of 7.53 and an Emax (SZ95 sebocytes; [6]) of 79.5%.
For `CC(C)CS(=O)(=O)c1ccccc1Oc1ccc(-c2noc(CN3C(=O)NC(C)(C)C3=O)n2)cc1C(F)(F)F` [Compound 50a, 3-((3-(4-(2-(isobutylsulfonyl)phenoxy)-3-(trifluoromethyl)phenyl)-1,2,4-oxadiazol-5-yl)methyl)-5,5-dimethylimidazolidine-2,4-dione], the Emax (SCD1; [1]) was 70.5%, the Emax (SCD1; [3]) was 67% and the pEC50 (SCD1; [7]) was 6.59.
In the case of `CC1(C)C(=O)N(Cc2nc(-c3ccc(Oc4ccccc4S(=O)(=O)C4CCOC4)c(C(F)(F)F)c3)no2)C(=O)N1CCC1CCOCC1` (stereo not drawn) [Compound 59, 5,5-dimethyl-1-(2-(tetrahydro-2H-pyran-4-yl)ethyl)-3-((3-(4-(2-((tetrahydrofuran-3-yl)sulfonyl)phenoxy)-3-(trifluoromethyl)phenyl)-1,2,4-oxadiazol-5-yl)methyl)imidazolidine-2,4-dione], the Emax (SZ95 sebocytes; [4]) was 140%, the pEC50 (SZ95 sebocytes; [5]) was ≥ 8.34 and the Emax (SZ95 sebocytes; [6]) was 135%.
`O=C(O)CCCCC(=O)N1CCC2(CC1)C(=O)N(Cc1nc(-c3ccc(Oc4ccccc4C(F)(F)F)c(C(F)(F)F)c3)no1)C(=O)N2CCN1CCOCC1` [Compound 69, 6-(1-(2-morpholinoethyl)-2,4-dioxo-3-((3-(3-(trifluoromethyl)-4-(2-(trifluoromethyl)phenoxy)phenyl)-1,2,4-oxadiazol-5-yl)methyl)-1,3,8-triazaspiro[4.5]decan-8-yl)-6-oxohexanoic acid] was tested, and the Emax (SCD1; [1]) was 76.4%, the pEC50 (SCD1; [2]) was 9.18 and the Emax (SCD1; [3]) was 72.7%.
